Holding throughout (format): cell-based
The subject of test [1] is Enterococcus faecalis ATCC 29212. Briefly: Broth microdilution MIC, E. faecalis ATCC 29212. The note with it: read-out: MIC E. faecalis ATCC 29212. In outline:
(§1)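 Broth microdilution in strain-specific test medium with ~5.0×10^5 cfu/ml inoculum, 1% DMSO and two-fold compound dilutions from 64 to 0.0625 μg/ml. Plates were held 20 hours at 37° C in ambient air. S. pneumoniae colonies were grown beforehand on blood agar in 5% CO2.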

The subject of test [2] is Streptococcus pneumoniae ATCC 49619. Briefly: Broth microdilution MIC, S. pneumoniae ATCC 49619. The following applies: read-out: MIC S. pneumoniae ATCC 49619. A digest of the protocol: as §1
On the technique in general: Broth dilution looks for growth in wells or tubes with falling amounts of substance.

Test [3] deals with Escherichia coli ATCC 25922. Briefly: Broth microdilution MIC, E. coli ATCC 25922 (MHIIB w & w/o 4 mM EDTA). The following applies: for MIC: Escherichia coli, read-out: MIC E. coli ATCC 25922; for MIC E. coli ATCC 25922 + 4 mM EDTA: with 4 mM EDTA. In outline:
as §1

In test [4] the test system is Staphylococcus aureus NRS384 (MRSA). Briefly: Broth microdilution MIC, S. aureus NRS384 (MRSA). Details: MIC NRS 384 (MRSA): unit not given here. The note with it: for MIC: Staphylococcus aureus, read-out: MIC NRS 384 (MRSA). A digest of the protocol: as §1
In test [5] the test system is Staphylococcus aureus ATCC 29213 (MSSA). Briefly: Broth microdilution MIC, S. aureus ATCC 29213 (MSSA). The following applies: read-out: MIC S. aureus ATCC 29213 (MSSA). A digest of the protocol:
as §1

The test system of test [6] is Enterococcus faecium ATCC 700221 (VRE). Briefly: Broth microdilution MIC, E. faecium ATCC 700221 (VRE). The note with it: for MIC: Enterococcus faecium, read-out: MIC E. faecium ATCC 700221 (VRE). Details: MIC E. faecium ATCC 700221 (VRE): unit: ug/mL. A digest of the protocol:
as §1

The test system of test [7] is Bacillus subtilis ATCC 6633. Briefly: Broth microdilution MIC, B. subtilis ATCC 6633. The following applies: read-out: MIC B. subtilis ATCC 6633. In outline:
as §1

The mark [8] stands for this setting: ATCC29212, broth microdilution, 37° C., 20 hours.
[9] abbreviates: ATCC49619, broth microdilution, 37° C., 20 hours.
Setting [10] is: ATCC25922, without EDTA, broth microdilution, 37° C., 20 hours.
Where [11] appears, read: broth microdilution, 37° C., 20 hours.
[12] abbreviates: ATCC6633, broth microdilution, 37° C., 20 hours.

The structures appear in SMILES notation. Converted amounts (≈) assume the structure as drawn. Where two headings read alike, the source gives them in different places.

By MIC is commonly meant the least concentration at which growth counts as inhibited.

For the molecule `O=c1[nH]c(NCc2ccc(Cl)c(Cl)c2)nc2cnn(Cc3ccccc3)c12` [Compound 127, 1-Benzyl-5-((3,4-dichlorobenzyl)amino)-1H-pyrazolo[4,3-d]pyrimidin-7(6H)-one], the MIC in test [1] (setting [8]) was greater than 64 µg/mL; in test [2] (setting [9]), greater than 64 µg/mL; in test [3] (setting [10]) it was greater than 64 µg/mL; in test [4] (setting [11]), greater than 64 µg/mL; in test [5] (setting [11]), greater than 64 µg/mL; in test [6] (setting [11]) it was 32 µg/mL (≈ 79.9 µM). Moreover, the MIC in test [7] (setting [12]) turned out to be 1 µg/mL (≈ 2.5 µM). In addition, the “MIC E. coli ATCC 25922 + 4 mM EDTA” value in test [3] (setting [11]) was greater than 64 µg/mL.

As to `N#CCOCCn1ncc2nc(NCc3ccc(Cl)c(Cl)c3)[nH]c(=O)c21` [Compound 285, 2-(2-(5-((3,4-dichlorobenzyl)amino)-7-oxo-6,7-dihydro-1H-pyrazolo[4,3-d]pyrimidin-1-yl)ethoxy)acetonitrile], the MIC in test [1] (setting [8]) was 4 µg/mL (≈ 10.2 µM); in test [2] (setting [9]), 4 µg/mL (≈ 10.2 µM); in test [3] (setting [10]), greater than 64 µg/mL; in test [5] (setting [11]) it was 4 µg/mL (≈ 10.2 µM); in test [7] (setting [12]), 1 µg/mL (≈ 2.54 µM). For the same molecule, the “MIC E. coli ATCC 25922 + 4 mM EDTA” value in test [3] (setting [11]) was greater than 64 µg/mL. In test [4] (setting [11]), the “MIC NRS 384 (MRSA)” value is 4/4. For the same molecule, in test [6] (setting [11]), the “MIC E. faecium ATCC 700221 (VRE)” value is 2/2.

Consider `Cc1noc(C)c1C(=O)NCCn1ncc2nc(NCc3ccc(Cl)c(Cl)c3)[nH]c(=O)c21` [Compound 79, N-(2-(5-((3,4-dichlorobenzyl)amino)-7-oxo-6,7-dihydro-1H-pyrazolo[4,3-d]pyrimidin-1-yl)ethyl)-3,5-dimethylisoxazole-4-carboxamide], for which the MIC in test [1] (setting [8]) is 16 µg/mL (≈ 33.6 µM); in test [2] (setting [9]), 8 µg/mL (≈ 16.8 µM); in test [3] (setting [10]), greater than 64 µg/mL; in test [4] (setting [11]) it was 32 µg/mL (≈ 67.2 µM); in test [5] (setting [11]), 16 µg/mL (≈ 33.6 µM); in test [6] (setting [11]) it was 8 µg/mL (≈ 16.8 µM). The MIC in test [7] (setting [12]) came to 16 µg/mL (≈ 33.6 µM). The “MIC E. coli ATCC 25922 + 4 mM EDTA” value in test [3] (setting [11]) was greater than 64 µg/mL.

On to `CC(C)(C)OC(=O)N1C[C@H](O)C[C@H]1C(=O)N1CCC(n2ncc3nc(NCc4ccc(Cl)c(Cl)c4)[nH]c(=O)c32)CC1` [Compound 275, (2S,4R)-tert-Butyl 2-(4-(5-((3,4-dichlorobenzyl)amino)-7-oxo-6,7-dihydro-1H-pyrazolo[4,3-d]pyrimidin-1-yl)piperidine-1-carbonyl)-4-hydroxypyrrolidine-1-carboxylate], for which the MIC is 16 µg/mL (≈ 26.4 µM) in test [1] (ATCC29212, 20 h); 8 µg/mL (≈ 13.2 µM) in test [2] (ATCC49619, 20 h); greater than 64 µg/mL in test [3] (ATCC25922, 20 h); 32 µg/mL (≈ 52.8 µM) in test [4] (20 h); 32 µg/mL (≈ 52.8 µM) in test [5] (20 h); 8 µg/mL (≈ 13.2 µM) in test [6] (20 h). In addition, the MIC in test [7] (ATCC6633, 20 h) came to 8 µg/mL (≈ 13.2 µM). For the same molecule, the “MIC E. coli ATCC 25922 + 4 mM EDTA” value in test [3] (setting [11]) is greater than 64 µg/mL.

Take `Cn1ncc2nc(NCc3ccncc3)[nH]c(=O)c21` [Compound 6, 1-Methyl-5-((pyridin-4-ylmethyl)amino)-1H-pyrazolo[4,3-d]pyrimidin-7(6H)-one]: the MIC in test [1] (setting [8]), in test [2] (setting [9]), in test [3] (setting [10]), in test [4] (setting [11]), in test [5] (setting [11]) and in test [6] (setting [11]) was greater than 64 µg/mL each time. Further, in test [7] (setting [12]), the minimal inhibitory concentration (MIC) is greater than 64 µg/mL. The “MIC E. coli ATCC 25922 + 4 mM EDTA” value in test [3] (setting [11]) is greater than 64 µg/mL.

`CN(C)C(CO)C(=O)N1CCC(n2ncc3nc(NCc4ccc(Cl)c(Cl)c4)[nH]c(=O)c32)CC1.Cl` (stereo not drawn) [Compound 279, 5-((3,4-dichlorobenzyl)amino)-1-(1-(2-(dimethylamino)-3-hydroxypropanoyl)piperidin-4-yl)-1H-pyrazolo[4,3-d]pyrimidin-7(6H)-one hydrochloride]: the MIC in test [1] (setting [8]) was 16 µg/mL; in test [2] (setting [9]), 4 µg/mL; in test [3] (setting [10]), greater than 64 µg/mL; in test [4] (setting [11]), 32 µg/mL; in test [5] (setting [11]) it was 32 µg/mL; in test [6] (setting [11]) it was 16 µg/mL. Also, in test [7] (setting [12]), the MIC was determined as 4 µg/mL. The “MIC E. coli ATCC 25922 + 4 mM EDTA” value in test [3] (setting [11]) is greater than 64 µg/mL.

The values above are taken from patent publication US10723741B1, “DNA polymerase IIIC inhibitors and use thereof” (Acurx Pharmaceuticals, LLC, priority 2018, dated 2020).
